Test results published in US11478466B2, “Small molecule promoting osteoblast differentiation” (Cornell University, priority 2019, dated 2022).

Test system: primary human mesenchymal stem cells (hMSCs)
Assay: In vitro mineralization assay (alizarin red) in hMSCs
Format: cell-based
Conditions: hMSCs in osteogenic medium, 10 μM from day 12 to 18, normalized to cell number
Experimental: To extend these observations to human osteoblast maturation, a quantitative assay was used to analyze mineralization in differentiating primary human mesenchymal stem cells (hMSCs). Bone marrow-derived hMSCs were cultured in unbiased growth medium for at least two passages and then cultured in osteogenic medium for 12 to 21 days and stained with alizarin red to identify a time window in which spontaneous mineralization first occurred (FIG. 4A). Subsequently, hMSCs in osteogenic medium were treated continuously with DIPQUO from day 12 to 18, stained and compared with equivalent DMSO treated controls, and then normalized to total cell numbers (FIG. 4B). DIPQUO-treated samples incorporated alizarin red in a molar ratio approximately 5 times greater than DMSO-treated samples (FIGS. 4C and 4D).
For mineralization studies, primary bone marrow-derived hMSCs (Lonza) were maintained and passaged in complete hMSC growth medium (Lonza). Cells were then switched to osteogenic medium (Lonza PT-3002) for 12 days, after which they were treated with DMSO or 10 μM DIPQUO for an additional 6 days. […] Staining was quantified using the Osteogenesis Quantitation kit (Millipore ECM815) following manufacturer's instructions. […] Absorbance was measured at 405 nm using an EMax Plus microplate reader and SoftMax Pro 7.0 software. […]

Cc1cc(C)c2[nH]c(=O)c(-c3[nH]cnc3-c3ccccc3)cc2c1 [RU-0226606, 6,8-dimethyl-3-(4-phenyl-1H-imidazol-5-yl)quinolin-2(1H)-one]
alizarin red incorporation, molar ratio relative to DMSO-treated samples: approximately 5 times
